Residue numbers refer to the chain shown, from its start.
Experiments:
Assay in all cases: Saturation binding of WK(FITC)YMVm, flow cytometry on HEK293F cells
[1] = tested on: wild-type (WT) and mutant FPR2; set-up: species or system human
Protocol: (§1) Flag-tagged wild-type and mutant FPR2s were cloned into the pTT5 vector and expressed in HEK293F cells. The cells were harvested, and washed with Hanks’ Balanced Salt Solution (HBSS) buffer supplemented with 0.5% bovine serum albumin and 20 mM HEPES, pH 7.4. The cells were then resuspended in the same buffer to the final concentration of 1 × 10^6 cells per ml. The cell-surface expression was measured as mentioned above. […] Mean fluorescent intensity of each well was then read by a FCM (flow cytometry) reader (Millipore). […] For competitive binding of fMLFK, cells were plated in 96-well plates (100,000 cells per well), and incubated with WK(FITC)YMVm at 4 °C for 1 h. The following concentrations of WK(FITC)YMVm were used: 10 nM (wild type, L81^2.60F, E89G, and V105^3.32A), 30 nM (D281^7.32G), 40 nM (H102^3.29F, V160^4.60A, L268^ECL3A, N285^7.36A, and F292^7.43A), and 100 nM (L164^4.64A and T177A). Then increasing concentrations of fMLFK (100 nM–1 mM) were added, and incubated for another 1 h on ice. Mean fluorescent intensity values were measured by flow cytometry. Data were analyzed using Prism 7.0.

[2] = target: T1, wild-type (WT) and mutant FPR2 (Homo sapiens, UniProt P25090, L268A); settings: FPR2 L268A
T1 construct: expressed in transfected cells; host or cells: HEK293F
T1 sequence (P25090 1-351 L268A): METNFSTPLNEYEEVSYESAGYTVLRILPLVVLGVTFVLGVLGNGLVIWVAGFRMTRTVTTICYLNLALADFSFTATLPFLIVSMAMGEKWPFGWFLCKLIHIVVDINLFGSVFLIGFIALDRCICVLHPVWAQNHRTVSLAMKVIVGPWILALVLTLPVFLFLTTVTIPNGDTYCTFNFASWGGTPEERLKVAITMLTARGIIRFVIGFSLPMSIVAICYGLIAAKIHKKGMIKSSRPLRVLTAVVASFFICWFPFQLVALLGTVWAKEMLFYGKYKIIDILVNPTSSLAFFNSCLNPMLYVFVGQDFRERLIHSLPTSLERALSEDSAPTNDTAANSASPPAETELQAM
Protocol: as §1

[3] = target: T2, wild-type (WT) and mutant FPR2 (Homo sapiens, UniProt P25090, F292A); settings: FPR2 F292A
T2 construct: expressed in transfected cells; host or cells: HEK293F
T2 sequence (P25090 1-351 F292A): T1 sequence (P25090 1-351 L268A) with A268L, F292A
Protocol: as §1

[4] = target: T3, wild-type (WT) and mutant FPR2 (Homo sapiens, UniProt P25090, E89G); settings: FPR2 E89G
T3 construct: expressed in transfected cells; host or cells: HEK293F
T3 sequence (P25090 1-351 E89G): T1 sequence (P25090 1-351 L268A) with E89G, A268L
Protocol: as §1

[5] = target: T4, wild-type (WT) and mutant FPR2 (Homo sapiens, UniProt P25090, L198F); settings: FPR2 L198F
T4 construct: expressed in transfected cells; host or cells: HEK293F
Protocol: as §1

[6] = target: T5, wild-type (WT) and mutant FPR2 (Homo sapiens, UniProt P25090, F5A); settings: FPR2 F5A
T5 construct: expressed in transfected cells; host or cells: HEK293F
Protocol: as §1

[7] = target: T6, wild-type (WT) and mutant FPR2 (Homo sapiens, UniProt P25090, D281G); settings: FPR2 D281G
T6 construct: expressed in transfected cells; host or cells: HEK293F
T6 sequence (P25090 1-351 D281G): T1 sequence (P25090 1-351 L268A) with A268L, D281G
Protocol: as §1

[8] = target: T7, wild-type (WT) and mutant FPR2 (Homo sapiens, UniProt P25090, L164A); settings: FPR2 L164A
T7 construct: expressed in transfected cells; host or cells: HEK293F
T7 sequence (P25090 1-351 L164A): T1 sequence (P25090 1-351 L268A) with L164A, A268L
Protocol: as §1

T5 sequence (P25090 whole entry F5A): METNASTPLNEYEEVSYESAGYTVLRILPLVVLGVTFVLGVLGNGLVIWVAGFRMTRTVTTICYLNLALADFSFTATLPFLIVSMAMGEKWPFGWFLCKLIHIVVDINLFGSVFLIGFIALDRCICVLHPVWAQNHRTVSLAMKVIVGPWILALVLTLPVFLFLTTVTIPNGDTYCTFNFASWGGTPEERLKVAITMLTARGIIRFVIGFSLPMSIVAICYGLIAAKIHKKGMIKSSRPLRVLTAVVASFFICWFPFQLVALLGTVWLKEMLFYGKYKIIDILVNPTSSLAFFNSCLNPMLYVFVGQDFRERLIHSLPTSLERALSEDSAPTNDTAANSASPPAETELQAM
T4 sequence (P25090 whole entry L198F): as the sequence (P25090 whole entry F5A) above, with A5F, L198F counted along it

Span (% of WT), saturation binding [2]: 76 ± 7 % of WT
Kd ([2]; mean ± s.e.m., n=3, SEM): 28.0 ± 10.0 nM
Span (% of WT), saturation binding [3]: 54 ± 14 % of WT
Kd ([3]; mean ± s.e.m., n=3, SEM): 42.5 ± 14.7 nM
Span (% of WT), saturation binding [4]: 134 ± 7 % of WT
Kd ([4]; mean ± s.e.m., n=3, SEM): 29.3 ± 6.0 nM
Span (% of WT), saturation binding [5]: 60 ± 9 % of WT
Kd ([5]; mean ± s.e.m., n=3, SEM): 21.4 ± 5.3 nM
Span (% of WT), saturation binding [6]: 62 ± 7 % of WT
Kd ([6]; mean ± s.e.m., n=3, SEM): 15.1 ± 7.4 nM
Span (% of WT), saturation binding [7]: 39 ± 3 % of WT
Kd ([7]; mean ± s.e.m., n=4, SEM): 34.3 ± 14.1 nM
Span (% of WT), saturation binding [8]: 85 ± 13 % of WT
Kd ([8]; mean ± s.e.m., n=3, SEM): 92.2 ± 25.1 nM
Compound: CSCC[C@H](NC(=O)[C@H](Cc1ccc(O)cc1)NC(=O)[C@H](CCCCNC(=S)Nc1ccc2c(c1)C(=O)OC21c2ccc(O)cc2Oc2cc(O)ccc21)NC(=O)[C@@H](N)Cc1c[nH]c2ccccc12)C(=O)N[C@H](C(=O)N[C@H](CCSC)C(N)=O)C(C)C [WK(FITC)YMVm]
reduction of binding affinity of WK(FITC)YMVm ([1]; mutant F257Y vs WT): 7 fold
binding of WK(FITC)YMVm ([1]; mutants D281G and D281L): decreased binding
binding of WK(FITC)YMVm ([1]; mutations D106A and R201A): significantly impaired
binding of FPR2 to WK(FITC)YMVm ([1]; mutations V105F, L109A, F110A, V113A, L164W, F178A, F180A, W254A, F257A and M271A): abolish the binding

Source: PMC7058083, “Structural basis of ligand binding modes at the human formyl peptide receptor 2” (Nature Communications, 2020)
